In ChEMBL document CHEMBL1201862, “PubChem BioAssay data set” (2004):
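All cell lines were grown in 96-well plates and treated with compound for 48 hours. At the GI50, growth is halved.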 Calls of active or inactive are those of the source. Rule as the data show it: active = GI50 up to about 1.1 µM and inactive = higher.

Tests used:
Test in all cases: NCI-60 cell line screen, 48 h
786-0 = system: 786-0
A498 = system: A498
A549 = system: A549
ACHN = system: ACHN
CAKI-1 = system: CAKI-1
CCRF-CEM = system: CCRF-CEM
COLO 205 = system: COLO 205
DU-145 = system: DU-145
EKVX = system: EKVX
HCC 2998 = system: HCC 2998
HCT-116 = system: HCT-116
HCT-15 = system: HCT-15
HL-60 = system: HL-60
HOP-62 = system: HOP-62
HOP-92 = system: HOP-92
HT-29 = system: HT-29
Hs-578T = system: Hs-578T
IGROV-1 = system: IGROV-1
K562 = system: K562
KM12 = system: KM12
LOX IMVI = system: LOX IMVI
MDA-MB-231 = system: MDA-MB-231
MDA-MB-435 = system: MDA-MB-435
MDA-N = system: MDA-N
MOLT-4 = system: MOLT-4
Malme-3M = system: Malme-3M
NCI-H226 = system: NCI-H226
NCI-H23 = system: NCI-H23
NCI-H460 = system: NCI-H460
NCI-H522 = system: NCI-H522
NCI/ADR-RES = system: NCI/ADR-RES
OVCAR-4 = system: OVCAR-4
OVCAR-5 = system: OVCAR-5
OVCAR-8 = system: OVCAR-8
PC-3 = system: PC-3
RPMI-8226 = system: RPMI-8226
RXF 393 = system: RXF 393
SF-268 = system: SF-268
SF-295 = system: SF-295
SF-539 = system: SF-539
SK-MEL-28 = system: SK-MEL-28
SK-MEL-2 = system: SK-MEL-2
SK-MEL-5 = system: SK-MEL-5
SK-OV-3 = system: SK-OV-3
SN12C = system: SN12C
SNB-19 = system: SNB-19
SNB-75 = system: SNB-75
SR = system: SR
SW-620 = system: SW-620
T47D = system: T47D
TK-10 = system: TK-10
U-251 = system: U-251
UACC-257 = system: UACC-257
UACC-62 = system: UACC-62
UO-31 = system: UO-31
M14 = system: M14
MCF7 = system: MCF7
OVCAR-3 = system: OVCAR-3

NS(=O)(=O)c1ccc(N2C(=O)C(=O)N(c3ccccc3)C2=S)cc1
GI50 (786-0): > 100 µM (inactive) | GI50 (A498): > 100 µM (inactive) | GI50 (A549): > 100 µM (inactive) | GI50 (ACHN): > 100 µM (inactive) | GI50 (CAKI-1): > 100 µM (inactive) | GI50 (CCRF-CEM): > 100 µM (inactive) | GI50 (COLO 205): > 100 µM (inactive) | GI50 (DU-145): > 100 µM (inactive) | GI50 (EKVX): 93.8 µM (inactive) | GI50 (HCC 2998): > 100 µM (inactive) | GI50 (HCT-116): > 100 µM (inactive) | GI50 (HCT-15): 60.3 µM | GI50 (HL-60): > 100 µM (inactive) | GI50 (HOP-62): > 100 µM (inactive) | GI50 (HOP-92): 23.6 µM (inactive) | GI50 (HT-29): > 100 µM (inactive) | GI50 (Hs-578T): > 100 µM (inactive) | GI50 (IGROV-1): > 100 µM (inactive) | GI50 (K562): > 100 µM (inactive) | GI50 (KM12): > 100 µM (inactive) | GI50 (LOX IMVI): > 100 µM (inactive) | GI50 (MDA-MB-231): > 100 µM (inactive) | GI50 (MDA-MB-435): > 100 µM (inactive) | GI50 (MDA-N): > 100 µM (inactive) | GI50 (MOLT-4): > 100 µM (inactive) | GI50 (Malme-3M): > 100 µM (inactive) | GI50 (NCI-H226): 61.1 µM (inactive) | GI50 (NCI-H23): > 100 µM (inactive) | GI50 (NCI-H460): > 100 µM (inactive) | GI50 (NCI-H522): 27 µM (inactive) | GI50 (NCI/ADR-RES): > 100 µM (inactive) | GI50 (OVCAR-4): 30.6 µM (inactive) | GI50 (OVCAR-5): > 100 µM (inactive) | GI50 (OVCAR-8): > 100 µM (inactive) | GI50 (PC-3): > 100 µM (inactive) | GI50 (RPMI-8226): > 100 µM (inactive) | GI50 (RXF 393): 75.7 µM (inactive) | GI50 (SF-268): > 100 µM (inactive) | GI50 (SF-295): > 100 µM (inactive) | GI50 (SF-539): > 100 µM (inactive) | GI50 (SK-MEL-28): > 100 µM (inactive) | GI50 (SK-MEL-2): > 100 µM (inactive) | GI50 (SK-MEL-5): 97.1 µM (inactive) | GI50 (SK-OV-3): > 100 µM (inactive) | GI50 (SN12C): > 100 µM (inactive) | GI50 (SNB-19): > 100 µM (inactive) | GI50 (SNB-75): 74.3 µM (inactive) | GI50 (SR): 18.9 µM (inactive) | GI50 (SW-620): > 100 µM (inactive) | GI50 (T47D): 55.1 µM (inactive) | GI50 (TK-10): > 100 µM (inactive) | GI50 (U-251): > 100 µM (inactive) | GI50 (UACC-257): 37.8 µM (inactive) | GI50 (UACC-62): > 100 µM (inactive) | GI50 (UO-31): > 100 µM (inactive)

Cc1cn(C2OC(CO[Si](C)(C)C(C)(C)C)/C(=C\C#N)C2O[Si](C)(C)C(C)(C)C)c(=O)[nH]c1=O (stereo not given)
GI50 (786-0): 58.1 µM (inactive) | GI50 (A498): > 100 µM (inactive) | GI50 (A549): 41.6 µM (inactive) | GI50 (ACHN): 83 µM (inactive) | GI50 (CAKI-1): > 100 µM (inactive) | GI50 (CCRF-CEM): 9.51 µM (inactive) | GI50 (COLO 205): 12.5 µM (inactive) | GI50 (DU-145): 81.8 µM (inactive) | GI50 (HCT-116): 22.9 µM (inactive) | GI50 (HCT-15): 14.4 µM | GI50 (HOP-62): 63.7 µM (inactive) | GI50 (HOP-92): > 100 µM (inactive) | GI50 (HT-29): 40.7 µM (inactive) | GI50 (Hs-578T): > 100 µM (inactive) | GI50 (K562): 1.93 µM (inactive) | GI50 (KM12): 27.1 µM (inactive) | GI50 (LOX IMVI): 19.5 µM (inactive) | GI50 (M14): > 100 µM (inactive) | GI50 (MCF7): 1.89 µM (inactive) | GI50 (MDA-MB-231): > 100 µM (inactive) | GI50 (MDA-MB-435): 56.1 µM (inactive) | GI50 (MDA-N): > 100 µM (inactive) | GI50 (MOLT-4): > 100 µM (inactive) | GI50 (NCI-H226): > 100 µM (inactive) | GI50 (NCI-H23): > 100 µM (inactive) | GI50 (NCI-H460): 8.83 µM (inactive) | GI50 (NCI/ADR-RES): > 100 µM (inactive) | GI50 (OVCAR-3): 7.73 µM (inactive) | GI50 (OVCAR-4): 58.3 µM (inactive) | GI50 (OVCAR-5): > 100 µM (inactive) | GI50 (PC-3): 3.83 µM (inactive) | GI50 (RPMI-8226): > 100 µM (inactive) | GI50 (RXF 393): 7.53 µM (inactive) | GI50 (SF-268): 92.5 µM (inactive) | GI50 (SF-295): 6.67 µM (inactive) | GI50 (SF-539): 6.75 µM (inactive) | GI50 (SK-MEL-28): > 100 µM (inactive) | GI50 (SK-MEL-2): 8.73 µM (inactive) | GI50 (SK-MEL-5): 6.87 µM (inactive) | GI50 (SK-OV-3): > 100 µM (inactive) | GI50 (SN12C): 64.6 µM (inactive) | GI50 (SNB-19): > 100 µM (inactive) | GI50 (SNB-75): 56.9 µM (inactive) | GI50 (SR): > 100 µM (inactive) | GI50 (SW-620): > 100 µM (inactive) | GI50 (T47D): 5.3 µM (inactive) | GI50 (TK-10): > 100 µM (inactive) | GI50 (U-251): 38.4 µM (inactive) | GI50 (UACC-257): 63.5 µM (inactive) | GI50 (UACC-62): 44.4 µM (inactive) | GI50 (UO-31): > 100 µM (inactive)

Cc1c(C)c2ccc(OCC(O)COC(C)C)c(C)c2oc1=O (stereo not given)
GI50 (786-0): > 10 µM (inactive) | GI50 (A549): 34.7 µM (inactive) | GI50 (ACHN): 44.3 µM (inactive) | GI50 (CAKI-1): 41.7 µM (inactive) | GI50 (CCRF-CEM): 27.5 µM (inactive) | GI50 (COLO 205): > 10 µM (inactive) | GI50 (DU-145): > 100 µM (inactive) | GI50 (EKVX): 45.5 µM (inactive) | GI50 (HCC 2998): 24.8 µM (inactive) | GI50 (HCT-116): 18.5 µM (inactive) | GI50 (HL-60): 35 µM (inactive) | GI50 (HOP-62): 28.7 µM (inactive) | GI50 (HOP-92): 33.2 µM (inactive) | GI50 (HT-29): 31 µM (inactive) | GI50 (Hs-578T): 31.7 µM (inactive) | GI50 (IGROV-1): 70.6 µM (inactive) | GI50 (K562): 25.4 µM (inactive) | GI50 (KM12): 56.1 µM (inactive) | GI50 (LOX IMVI): 18.7 µM (inactive) | GI50 (M14): 20.8 µM (inactive) | GI50 (MCF7): 24.4 µM (inactive) | GI50 (MDA-N): 17.7 µM (inactive) | GI50 (MOLT-4): > 10 µM (inactive) | GI50 (Malme-3M): 16.2 µM (inactive) | GI50 (NCI-H23): 91.6 µM (inactive) | GI50 (NCI-H460): 16.7 µM (inactive) | GI50 (NCI-H522): 17.2 µM (inactive) | GI50 (NCI/ADR-RES): 41.5 µM (inactive) | GI50 (OVCAR-3): > 100 µM (inactive) | GI50 (OVCAR-4): > 10 µM (inactive) | GI50 (OVCAR-5): 39.1 µM (inactive) | GI50 (OVCAR-8): 28.2 µM (inactive) | GI50 (PC-3): 45.2 µM (inactive) | GI50 (RPMI-8226): 21.4 µM (inactive) | GI50 (SF-268): > 100 µM (inactive) | GI50 (SF-295): 23.5 µM (inactive) | GI50 (SK-MEL-28): 34 µM (inactive) | GI50 (SK-MEL-2): 20.1 µM (inactive) | GI50 (SK-MEL-5): 16.4 µM (inactive) | GI50 (SK-OV-3): > 100 µM (inactive) | GI50 (SNB-19): 57.5 µM (inactive) | GI50 (SR): 26.7 µM (inactive) | GI50 (SW-620): 29.4 µM (inactive) | GI50 (T47D): > 100 µM (inactive) | GI50 (TK-10): 25.1 µM (inactive) | GI50 (U-251): 16.2 µM (inactive) | GI50 (UACC-257): 19.8 µM (inactive) | GI50 (UACC-62): 38.5 µM (inactive) | GI50 (UO-31): 41.8 µM (inactive)
